Tests used:
[1] = test system: P.a. Harvard PA14; assay: Biofilm (colony architecture) formation on defined M63 medium; type: cell-based, Pseudomonas aeruginosa; conditions: 500 μM
Excerpt: Similarly to Bacillus subtilis, Pseudomonas aeruginosa forms a complex architecture on defined medium. These complex structures require the proper formation and assembly of the extra-cellular matrix. […] For these experiments, the organism/strain was P.a. Harvard PA14, the culture medium was M63 and the cell inoculation was at 1.5×10^9 cfu.

[2] = test system: S. aureus (strain SCO1); assay: Biofilm formation on polystyrene, crystal violet staining; type: cell-based, Staphylococcus aureus
Procedure: Crystal violet staining Crystal violet staining was done as described previously (O'Toole et al., Mol. […] Wells were stained with 500 μl of 1.0% Crystal-violet dye, rinsed twice with 2 ml double-distilled water and thoroughly dried.
The effect of D-amino acids on biofilm formation by other bacteria was examined. The pathogenic bacterium Staphylococcus aureus forms biofilms on plastic surfaces (Otto, Curr. Top. Microbiol. Immunol. 322:207 (2008)), which can be detected by washing away unbound cells and staining the bound cells with crystal violet. […] Additionally added to the wells were no amino acids (untreated), D-tyrosine (50 μM) or the D-amino acid mixture ([…] each). Cells bound to the polystyrene were visualized by washing away unbound cells and then staining with crystal violet.
(§1) For experiments reported in Table 1, the organism/strain was S.a. Harvard SCO1, the culture medium was TSB and the cell inoculation was at 2×10^9 cfu. For experiments reported in Table 2, the organism/strain was […], the culture medium was M63 and the cell inoculation was at 1.5×10^9 cfu. Biofilm was visualized using the crystal violet method. The data is shown below in Tables 1 and 2:
For experiments reported in Tables 3 and 4, the organism/strain was S.a. Harvard SCO1, the culture medium was TSB and the cell inoculation was at 2×10^9 cfu. Biofilm was visualized using the crystal violet method.

[3] = test system: Pseudomonas aeruginosa; assay: Attached single cells in well plate, Syto-9 staining; type: cell-based
Procedure: An alternative method to observe biofilm formation on a 6 well plate with or without D-amino acids and using Syto-9 staining was as follows: Pseudomonas aeruginosa biofilms were washed twice with PBS and then fixed for at least an hour in 5% Glutaraldehyde in PBS. The fixed biofilms were then rinsed once again with PBS and soaked in 0.1% v/v Triton X-100 in PBS (PBST) for 15 minutes. The solution was exchanged with 0.1 nM […] (Invitrogen) in cold PBST and gently rocked in the dark for at least 15 minutes. Fluorescence images of the biofilms were captured with a Leica DMRX compound microscope using a Xe lamp and a K3 Leica filtercube. […] The amount of attached single cells was quantified using image J. The decrease in the amount of cells attached to the epoxy surfaces soaked with D-aa compared with the L-aa control was substantially more.

[4] = test system: Pseudomonas aeruginosa PA14; assay: Biofilm formation on polystyrene, crystal violet staining; type: cell-based
Procedure: Crystal violet staining Crystal violet staining was done as described previously (O'Toole et al., Mol. Microbiol. 30:295 (1998)) except that the cells were grown in 6-well plates. Wells were stained with 500 μl of 1.0% Crystal-violet dye, rinsed twice with 2 ml double-distilled water and thoroughly dried.
P. aeruginosa strain […] was grown in 12-well polystyrene plates for 48 hours at 30° C. in M63 medium containing glycerol (0.2%) and Casamino acids (20 μg/ml). Additionally added to the wells were no amino acids (untreated), D-tyrosine or the D-amino acid equimolar mixture. Cells bound to the polystyrene were visualized by washing away unbound cells and then staining with crystal violet. Wells were stained with 500 μl of 1.0% Crystal-violet dye, rinsed twice with 2 ml double-distilled water and thoroughly dried.
as §1, with “method.” for “method. The data is shown below in Tables 1 and 2:”

[5] = test system: Bacillus subtilis; assay: Disruption of existing 3 day-old pellicles; type: cell-based; conditions: 3 μM added to 3 day-old cultures, further 8 hours
[6] = test system: Bacillus subtilis NCIB3610; assay: Colony biofilm formation on solid MSgg medium; type: cell-based; conditions: 3 μM, 4 days
Procedure: Colony and pellicle formation. For colony formation on solid medium, cells were first grown to exponential growth phase in LB broth and 3 μl of culture were spotted onto solid MSgg medium containing 1.5% Bacto agar. The plates were incubated at 23° C. For pellicle formation in liquid medium, cells were grown to exponential phase and 6 μl of culture were mixed with 6 ml of medium in a 12-well plate (VWR). Plates were incubated at 23° C. Images of colonies and pellicles were taken using a SPOT camera (Diagnostic Instruments, USA).

[7] = test system: matrix operons eps and yqxM; assay: Expression of PyqxM-lacZ and PepsA-lacZ (β-galactosidase activity); type: cell-based, Bacillus subtilis; conditions: 3 μM, strains FC122 and FC5, MSgg, shaking
Procedure: Assays of β-galactosidase activity. Cells were cultured in MSgg medium at 37° C. in a water bath with shaking 1 ml of culture was collected at each time point. β-galactosidase activity was determined as described previously (Chai et al., Mol. Microbiol. 67:254 (2008)).

[8] = Staphylococcus aureus, 24 h, read-out: % Inhibition relative to control (0%, <50%, 50-90%, >90%)

Question: How did the “Biofilm formation on defined medium (FIG. 20)” value [1] turn out when `N[C@H](Cc1ccc(O)cc1)C(=O)O` [D-tyrosine] was run?
Answer: inhibited biofilm formation

Question: What about the “Prevention of biofilm formation (FIG. 2E)” value ([2]; 50 μM, 12-well polystyrene, 24 hours at 37° C., TSB with glucose (0.5%) and NaCl (3%)) of the same compound?
Answer: highly effective in preventing biofilm formation

Question: What about the inhibition at 0.1 µM [2, 8] of the same compound?
Answer: 0%

Question: What about the inhibition at 10 µM [2, 8] of the same compound?
Answer: 0%

Question: What about the inhibition at 100 µM [2, 8] of the same compound?
Answer: > 90%

Question: What about the inhibition at 500 µM [2, 8] of the same compound?
Answer: > 90%

Question: And the inhibition at 50 µM ([3]; Pseudomonas aeruginosa, 12 h, read-out: % Inhibition relative to control (0%, <50%, 50-90%, >90%))?
Answer: > 90%

Question: And the “number of cells attached to the bottom of the biofilm plate (FIG. 21)” value ([3]; concentration not given)?
Answer: dramatic decrease in the number of cells attached

Question: What about the “Prevention of biofilm formation (FIG. 10)” value ([4]; 10 μM, strain P014, polystyrene, 48 hours at 30° C., M63 medium) of the same compound?
Answer: effective in preventing biofilm formation

Question: What about the inhibition at 0.1 µM ([4]; Pseudomonas aeruginosa, PA14, Table 2, 100 nM, 48 h/30° C., polystyrene, M63, read-out: % Inhibition relative to control (0%, <50%, 50-90%, >90%)) of the same compound?
Answer: 0%

Question: And the inhibition at 10 µM ([4]; Pseudomonas aeruginosa, PA14, Table 2, 10 μM, 48 h/30° C., polystyrene, M63, read-out: % Inhibition relative to control (0%, <50%, 50-90%, >90%))?
Answer: > 90%

Question: What about the inhibition at 100 µM ([4]; Pseudomonas aeruginosa, PA14, Table 2, 100 μM, 48 h/30° C., polystyrene, M63, read-out: % Inhibition relative to control (0%, <50%, 50-90%, >90%)) of the same compound?
Answer: > 90%

Question: What about the inhibition at 500 µM ([4]; Pseudomonas aeruginosa, PA14, Table 2, 500 μM, 48 h/30° C., polystyrene, M63, read-out: % Inhibition relative to control (0%, <50%, 50-90%, >90%)) of the same compound?
Answer: > 90%

Question: And the “Breakdown of existing pellicles (FIG. 2C)” value [5]?
Answer: conspicuous breakdown of pellicles

Question: What about the “Biofilm formation on solid MSgg medium (FIG. 6)” value [6] of the same compound?
Answer: inhibited biofilm formation

Question: And the “yqxM and eps expression (FIG. 9A, 9B)” value [7]?
Answer: substantially the same as the untreated sample

Reference: US20130059096A1, “METHODS AND COATINGS FOR TREATING BIOFILMS” (President and Fellows of Harvard College, priority 2010, published 2013)
